The nature of this data set: Cyto-toxicity (MTT assay). In kind it is cell-based. On the procedure: On day 1 calculate the number of cells required for the assay and seed 3×10^4 cells in 200 μl per well. Weigh the compound and dissolve it in DMSO to get 10 mM stock which is further diluted to 3 mM and 1 mM. […] Add DMSO to controls in a way to obtain final concentration of solvent that is not greater than 1%. Incubate for 4 days in 5% CO2 incubator at 37° C. On day 4, 100 μl of medium was removed from each well without disturbing the cells. Add 10 μl of MTT reagent and incubate for 4 hours at 5% CO2 incubator at 37° C. for formation of crystals. Add 200 μl of 0.1N acidic isopropanol to dissolve the crystals and read the plate at 590 nm. The values are mentioned in below Table-3 and Table-3A.

[1] abbreviates: 0.01 μM, MTT, 4 days (Table 3), read-out: Cytotoxicity % viability.
[2] abbreviates: 0.1 μM, MTT, 4 days (Table 3), read-out: Cytotoxicity % viability.
Where [3] appears, read: 1 μM, MTT, 4 days (Table 3), read-out: Cytotoxicity % viability.

Counter-ions that a name gives are not always drawn. Like-named read-outs stand apart in the source and are kept apart here.

`CC(C)C1=C2[C@H]3CC[C@@H]4[C@@]5(C)CC[C@H](OC(=O)[C@H]6C[C@@H](C(=O)O)C6(C)C)C(C)(C)[C@@H]5CC[C@@]4(C)[C@]3(C)CC[C@@]2(NC(=O)C(C)(C)NC(=O)CN2CCS(=O)(=O)CC2)CC1=O` [Example 34, (1R,3S)-3-((((3aR,5aR,5bR,7aR,9S,11aR,11bR,13aS)-3a-(2-(2-(1,1-dioxidothiomorpholino)acetamido)-2-methylpropanamido)-1-isopropyl-5a,5b,8,8,11a-pentamethyl-2-oxo-3,3a,4,5,5a,5b,6,7,7a,8,9,10,11,11a,11b,12,13,13a-octadecahydro-2H-cyclopenta[a]chrysen-9-yl)oxy)carbonyl)-2,2-dimethylcyclobutane-1-carboxylic acid] returned a viability at 4 days, 0.01 µM of 26%; a viability at 4 days, 0.1 µM of 10%; a viability at 4 days, 1 µM of 1%.

As for `CC(C)C1=C2[C@H]3CC[C@@H]4[C@@]5(C)CC[C@H](OC(=O)[C@H]6C[C@@H](C(=O)O)C6(C)C)C(C)(C)[C@@H]5CC[C@@]4(C)[C@]3(C)CC[C@@]2(NC(=O)C(C)(C)NC(=O)C2CCNCC2)CC1=O` [Example 35, (1R,3S)-3-((((3aR,5aR,5bR,7aR,9S,11aR,11bR,13aS)-1-isopropyl-5a,5b,8,8,11a-pentamethyl-3a-(2-methyl-2-(piperidine-4-carboxamido)propanamido)-2-oxo-3,3a,4,5,5a,5b,6,7,7a,8,9,10,11,11a,11b,12,13,13a-octadecahydro-2H-cyclopenta[a]chrysen-9-yl)oxy)carbonyl)-2,2-dimethylcyclobutane-1-carboxylic acid hydrochloride], the viability at 4 days, 0.01 µM under setting [1] amounted to 84%. Besides, the viability at 4 days, 0.1 µM under setting [2] came out at 92%. Besides, under setting [3], the viability at 4 days, 1 µM turned out to be 77%.

`CC(C)C1=C2[C@H]3CC[C@@H]4[C@@]5(C)CC[C@H](OC(=O)[C@H]6C[C@@H](C(=O)O)C6(C)C)C(C)(C)[C@@H]5CC[C@@]4(C)[C@]3(C)CC[C@@]2(NC(=O)C(C)(C)NC(=O)[C@@H](N)C(C)C)CC1=O` [Example 36, (1R,3S)-3-((((3aR,5aR,5bR,7aR,9S,11aR,11bR,13aS)-3a-(2-((S)-2-amino-3-methylbutanamido)-2-methylpropanamido)-1-isopropyl-5a,5b,8,8,11a-pentamethyl-2-oxo-3,3a,4,5,5a,5b,6,7,7a,8,9,10,11,11a,11b,12,13,13a-octadecahydro-2H-cyclopenta[a]chrysen-9-yl)oxy)carbonyl)-2,2-dimethylcyclobutane-1-carboxylic acid hydrochloride]: the viability at 4 days, 0.01 µM under setting [1] is 56%. Moreover, under setting [2], the viability at 4 days, 0.1 µM was 15%. Moreover, the viability at 4 days, 1 µM under setting [3] was 8%.

For the molecule `CC(C)C1=C2[C@H]3CC[C@@H]4[C@@]5(C)CC[C@H](OC(=O)[C@H]6C[C@@H](C(=O)O)C6(C)C)C(C)(C)[C@@H]5CC[C@@]4(C)[C@]3(C)CC[C@@]2(NC(=O)C2(NC(=O)c3ccc(F)cc3)CC2)CC1=O` [Example 39, (1R,3S)-3-((((3aR,5aR,5bR,7aR,9S,11aR,11bR,13aS)-3a-(1-(4-fluorobenzamido)cyclopropane-1-carboxamido)-1-isopropyl-5a,5b,8,8,11a-pentamethyl-2-oxo-3,3a,4,5,5a,5b,6,7,7a,8,9,10,11,11a,11b,12,13,13a-octadecahydro-2H-cyclopenta[a]chrysen-9-yl)oxy)carbonyl)-2,2-dimethylcyclobutane-1-carboxylic acid], the viability at 4 days, 0.01 µM is 29%; the viability at 4 days, 0.1 µM was 2%; the viability at 4 days, 1 µM came out at 0%.

`Cc1ccc(C(=O)NC2(C(=O)N[C@@]34CC[C@]5(C)[C@H](CC[C@@H]6[C@@]7(C)CC[C@H](OC(=O)[C@H]8C[C@@H](C(=O)O)C8(C)C)C(C)(C)[C@@H]7CC[C@]65C)C3=C(C(C)C)C(=O)C4)CCCCC2)cn1` [Example 49, (1R,3S)-3-((((3aR,5aR,5bR,7aR,9S,11aR,11bR,13aS)-1-isopropyl-5a,5b,8,8,11a-pentamethyl-3a-(1-(6-methylnicotinamido)cyclohexane-1-carboxamido)-2-oxo-3,3a,4,5,5a,5b,6,7,7a,8,9,10,11,11a,11b,12,13,13a-octadecahydro-2H-cyclopenta[a]chrysen-9-yl)oxy)carbonyl)-2,2-dimethylcyclobutane-1-carboxylic acid] showed a viability at 4 days, 0.01 µM of 56%; a viability at 4 days, 0.1 µM of 12%; a viability at 4 days, 1 µM of 4%.

As to `CC(C)C1=C2[C@H]3CC[C@@H]4[C@@]5(C)CC[C@H](OC(=O)[C@H]6C[C@@H](C(=O)O)C6(C)C)C(C)(C)[C@@H]5CC[C@@]4(C)[C@]3(C)CC[C@@]2(NC(=O)C(C)(C)NC(=O)[C@H]2CCCNC2)CC1=O` [Example 52, (1R,3S)-3-((((3aR,5aR,5bR,7aR,9S,11aR,11bR,13aS)-1-isopropyl-5a,5b,8,8,11a-pentamethyl-3a-(2-methyl-2-((S)-piperidine-3-carboxamido)propan amido)-2-oxo-3,3a,4,5,5a,5b,6,7,7a,8,9,10,11,11a,11b,12,13,13a-octadecahydro-2H-cyclopenta[a]chrysen-9-yl)oxy)carbonyl)-2,2-dimethylcyclobutane-1-carboxylic acid hydrochloride], for the setting “0.001 μM, MTT, 4 days (Table 3A), read-out: Cytotoxicity % viability”, the viability at 4 days, 0.001 µM came out at 83%. For the same molecule, the viability at 4 days, 0.003 µM (0.003 μM, MTT, 4 days (Table 3A), read-out: Cytotoxicity % viability) turned out to be 89%. Besides, the viability at 4 days, 0.01 µM (0.01 μM, MTT, 4 days (Table 3A), read-out: Cytotoxicity % viability) stood at 59%.

In the case of `CC(C)C1=C2[C@H]3CC[C@@H]4[C@@]5(C)CC[C@H](OC(=O)[C@H]6C[C@@H](C(=O)O)C6(C)C)C(C)(C)[C@@H]5CC[C@@]4(C)[C@]3(C)CC[C@@]2(NC(=O)C(C)(C)NS(C)(=O)=O)CC1=O` [Example 63, sodium (1R,3S)-3-((((3aR,5aR,5bR,7aR,9S,11aR,11bR,13aS)-1-isopropyl-5a,5b,8,8,11a-pentamethyl-3a-(2-methyl-2-(methylsulfonamido)propanamido)-2-oxo-3,3a,4,5,5a,5b,6,7,7a,8,9,10,11,11a,11b,12,13,13a-octadecahydro-2H-cyclopenta[a]chrysen-9-yl)oxy)carbonyl)-2,2-dimethylcyclobutane-1-carboxylate], the viability at 4 days, 0.01 µM stood at 51%; the viability at 4 days, 0.1 µM is 16%; the viability at 4 days, 1 µM stood at 0%.

In turn, `CC(C)C1=C2[C@H]3CC[C@@H]4[C@@]5(C)CC[C@H](OC(=O)[C@H]6C[C@@H](C(=O)O)C6(C)C)C(C)(C)[C@@H]5CC[C@@]4(C)[C@]3(C)CC[C@@]2(NC(=O)C(C)(C)NCC2(c3ccc(Cl)cc3)CC2)CC1=O` [Example 69, (1R,3S)-3-((((3aR,5aR,5bR,7aR,9S,11aR,11bR,13aS)-3a-(2-(((1-(4-chlorophenyl)cyclopropyl)methyl)amino)-2-methylpropanamido)-1-isopropyl-5a,5b,8,8, 11a-pentamethyl-2-oxo-3,3a,4,5,5a,5b,6,7,7a,8,9,10,11,11a,11b,12,13,13a-octadecahydro-2H-cyclopenta[a]chrysen-9-yl)oxy)carbonyl)-2,2-dimethylcyclobutane-1-carboxylic acid] returned a viability at 4 days, 0.01 µM of 42%; a viability at 4 days, 0.1 µM of 8%; a viability at 4 days, 1 µM of 8%.
